From patent US20230078764A1 (Yumanity Therapeutics, Inc., priority 2019, published 2023)
Like-named read-outs stand apart in the source and are kept apart here.

Key:
Format in all cases: cell-based
human SCD5 [1] = biological target: human SCD5 (Homo sapiens, UniProt Q86SK9); test: Growth inhibition of yeast strain expressing human SCD5 as sole desaturase (OLE1 deleted), OD600 readout
human SCD1 [2] = biological target: human SCD1 (Homo sapiens, UniProt O00767); test: Growth inhibition of yeast strain expressing human SCD1 as sole desaturase (OLE1 deleted), OD600 readout
human SCD1 [3] = biological target: T1, human SCD1 (Homo sapiens, UniProt O00767); test: as above; conditions: yeast strain expressing human SCD1 as sole desaturase; growth (OD600) after 40 h at 30° C.; read-out: SCD1 IC50
T1 construct: expressed in transfected cells; host or cells: yeast strain with OLE1 deleted, plasmid-borne human SCD1 (selected in SD-Ura)
T1 sequence (O00767 1-359): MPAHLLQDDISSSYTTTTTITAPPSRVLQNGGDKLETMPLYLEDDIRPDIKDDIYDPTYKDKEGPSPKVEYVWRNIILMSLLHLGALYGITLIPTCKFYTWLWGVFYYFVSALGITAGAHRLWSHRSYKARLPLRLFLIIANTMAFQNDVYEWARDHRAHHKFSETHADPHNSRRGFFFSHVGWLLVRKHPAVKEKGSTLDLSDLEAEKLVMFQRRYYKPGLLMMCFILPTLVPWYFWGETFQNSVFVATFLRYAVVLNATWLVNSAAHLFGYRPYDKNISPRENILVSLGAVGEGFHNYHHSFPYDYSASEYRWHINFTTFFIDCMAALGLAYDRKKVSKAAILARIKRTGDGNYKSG

human SCD5 [4] = biological target: T2, human SCD5 (Homo sapiens, UniProt Q86SK9); test: Growth inhibition of yeast strain expressing human SCD5 as sole desaturase (OLE1 deleted), OD600 readout
T2 construct: expressed in transfected cells; host or cells: yeast strain with OLE1 deleted, plasmid-borne human SCD5 (selected in SD-Ura)
T2 sequence (Q86SK9 1-330): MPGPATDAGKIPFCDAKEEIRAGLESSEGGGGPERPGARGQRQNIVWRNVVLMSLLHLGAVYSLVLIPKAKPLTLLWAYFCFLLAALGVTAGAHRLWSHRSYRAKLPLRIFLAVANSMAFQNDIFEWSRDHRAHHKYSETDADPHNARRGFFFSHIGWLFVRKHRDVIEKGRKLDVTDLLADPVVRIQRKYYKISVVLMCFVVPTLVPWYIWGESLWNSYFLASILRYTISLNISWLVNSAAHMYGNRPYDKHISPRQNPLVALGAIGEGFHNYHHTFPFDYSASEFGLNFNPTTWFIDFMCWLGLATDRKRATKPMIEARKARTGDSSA

[5] = yeast strain expressing human SCD5 as sole desaturase, growth (OD600) after 40 h at 30° C., read-out: SCD5 IC50

`CN1N=C(C(=O)Nc2ncc(Cc3ccccc3)s2)CCC1=O` gave an IC50 (human SCD5 [1]) of 0.19 µM and an IC50 (human SCD1 [2]) of 0.59 µM.
With `CN1N=C(C(=O)Nc2ncc(Cc3cccc(Cl)c3)cn2)CCC1=O` [Compound 175, N-(5-(3-chlorobenzyl)pyrimidin-2-yl)-1-methyl-6-oxo-1,4,5,6-tetrahydropyridazine-3-carboxamide] the IC50 (human SCD5 [1]) was 20.1 µM and the IC50 (human SCD1 [3]) was over 45 µM.
`COc1cccc(Cc2ccc(NC(=O)C3=NN(C)C(=O)CC3)nc2)c1` [Example 30, N-(5-(3-methoxybenzyl)pyridin-2-yl)-1-methyl-6-oxo-1,4,5,6-tetrahydropyridazine-3-carboxamide] showed an IC50 (human SCD5 [4]; [5]) of 3.53 µM and an IC50 (human SCD1 [3]) of over 45 µM.
Work on `CN1N=C(C(=O)Nc2ccc(Cc3cc(Cl)cc(Cl)c3)cn2)CCC1=O` [Example 31] yielded an IC50 (human SCD5 [4]; [5]) of 0.05 µM and an IC50 (human SCD1 [3]) of 6.28 µM.
`CN1N=C(C(=O)Nc2ccc(Cc3cccc(C(F)F)c3)cn2)CCC1=O` [Example 32, N-(5-(3-(difluoromethyl)benzyl)pyridin-2-yl)-1-methyl-6-oxo-1,4,5,6-tetrahydropyridazine-3-carboxamide] was tested, and the IC50 (human SCD5 [4]; [5]) was 0.31 µM and the IC50 (human SCD1 [3]) was 26.4 µM.
In the case of `CN1N=C(C(=O)Nc2ccc(Cc3ccc(C#N)c(Cl)c3)cn2)CCC1=O` [Example 33, N-(5-(3-chloro-4-cyanobenzyl)pyridin-2-yl)-1-methyl-6-oxo-1,4,5,6-tetrahydropyridazine-3-carboxamide], the IC50 (human SCD5 [4]; [5]) is reported as 18 µM and the IC50 (human SCD1 [3]) is reported as over 45 µM.
`CN1N=C(C(=O)Nc2ccc(CC3=CCCCC3)cn2)CCC1=O` [Example 34, N-(5-(cyclohexenylmethyl)pyridin-2-yl)-1-methyl-6-oxo-1,4,5,6-tetrahydropyridazine-3-carboxamide] gave an IC50 (human SCD5 [4]; [5]) of 0.71 µM and an IC50 (human SCD1 [3]) of over 45 µM.
`Cn1nc(C(=O)Nc2ccc(Cc3ccc(F)c(F)c3)cn2)ccc1=O` [Example 35, N-(5-(3,4-difluorobenzyl)pyridin-2-yl)-1-methyl-6-oxo-1,6-dihydropyridazine-3-carboxamide] was tested, and the IC50 (human SCD5 [4]; [5]) was 0.3 µM and the IC50 (human SCD1 [3]) was over 45 µM.
With `Cn1nc(C(=O)Nc2ccc(Cc3ccc(Cl)cc3)cn2)ccc1=O` [Example 36, N-(5-(4-chlorobenzyl)pyridin-2-yl)-1-methyl-6-oxo-1,6-dihydropyridazine-3-carboxamide] the IC50 (human SCD5 [4]; [5]) was 0.38 µM and the IC50 (human SCD1 [3]) was 16.9 µM.
Work on `Cn1nc(C(=O)Nc2ccc(Cc3cc(F)cc(F)c3)cn2)ccc1=O` [Example 37, N-(5-(3,5-difluorobenzyl)pyridin-2-yl)-1-methyl-6-oxo-1,6-dihydropyridazine-3-carboxamide] yielded an IC50 (human SCD5 [4]; [5]) of 0.05 µM and an IC50 (human SCD1 [3]) of 10.2 µM.
Work on `Cn1nc(C(=O)Nc2ccc(CC3CCCCC3)cn2)ccc1=O` [Example 38, N-(5-(cyclohexylmethyl)pyridin-2-yl)-1-methyl-6-oxo-1,6-dihydropyridazine-3-carboxamide] yielded an IC50 (human SCD5 [4]; [5]) of 0.89 µM and an IC50 (human SCD1 [3]) of 15.7 µM.
`Cn1nc(C(=O)Nc2ccc(Cc3ccc(C(F)(F)F)cc3)cn2)ccc1=O` [Example 39, 1-methyl-6-oxo-N-(5-(4-(trifluoromethyl)benzyl)pyridin-2-yl)-1,6-dihydropyridazine-3-carboxamide] gave an IC50 (human SCD5 [4]; [5]) of 0.92 µM and an IC50 (human SCD1 [3]) of over 45 µM.
`Cn1nc(C(=O)Nc2ccc(Cc3cc(F)cc(Cl)c3)cn2)ccc1=O` [Example 40, N-(5-(3-chloro-5-fluorobenzyl)pyridin-2-yl)-1-methyl-6-oxo-1,6-dihydropyridazine-3-carboxamide] was tested, and the IC50 (human SCD5 [4]; [5]) was 0.01 µM and the IC50 (human SCD1 [3]) was 0.11 µM.
`Cn1nc(C(=O)Nc2ccc(Cc3cc(F)c(F)c(F)c3)cn2)ccc1=O` [Example 41, 1-methyl-6-oxo-N-(5-(3,4,5-trifluorobenzyl)pyridin-2-yl)-1,6-dihydropyridazine-3-carboxamide] showed an IC50 (human SCD5 [4]; [5]) of 0.01 µM and an IC50 (human SCD1 [3]) of 0.19 µM.
`Cn1nc(C(=O)Nc2ccc(Cc3cc(F)cc(C#N)c3)cn2)ccc1=O` [Example 42, N-(5-(3-cyano-5-fluorobenzyl)pyridin-2-yl)-1-methyl-6-oxo-1,6-dihydropyridazine-3-carboxamide] gave an IC50 (human SCD5 [4]; [5]) of 0.08 µM and an IC50 (human SCD1 [3]) of 2.41 µM.
For `COc1cccc(Cc2ccc(NC(=O)c3ccc(=O)n(C)n3)nc2)c1` [Example 44, N-(5-(3-methoxybenzyl)pyridin-2-yl)-1-methyl-6-oxo-1,6-dihydropyridazine-3-carboxamide], the IC50 (human SCD5 [4]; [5]) was 0.78 µM and the IC50 (human SCD1 [3]) was 14.1 µM.
`Cn1nc(C(=O)Nc2ccc(Cc3cccc(F)c3)cn2)ccc1=O` [Example 45, N-(5-(3-fluorobenzyl)pyridin-2-yl)-1-methyl-6-oxo-1,6-dihydropyridazine-3-carboxamide] gave an IC50 (human SCD5 [4]; [5]) of 0.43 µM and an IC50 (human SCD1 [3]) of 15.4 µM.
`Cn1nc(C(=O)Nc2ccc(Cc3ccc(F)c(Cl)c3)cn2)ccc1=O` [Example 46, N-(5-(3-chloro-4-fluorobenzyl)pyridin-2-yl)-1-methyl-6-oxo-1,6-dihydropyridazine-3-carboxamide] was tested, and the IC50 (human SCD5 [4]; [5]) was 0.01 µM and the IC50 (human SCD1 [3]) was 0.06 µM.
Compound `Cn1nc(C(=O)Nc2ccc(Cc3cccc(Cl)c3)cn2)ccc1=O` [Example 47, N-(5-(3-chlorobenzyl)pyridin-2-yl)-1-methyl-6-oxo-1,6-dihydropyridazine-3-carboxamide] has an IC50 (human SCD5 [4]; [5]) of 0.13 µM and an IC50 (human SCD1 [3]) of 1.1 µM.
`Cn1cc(C(=O)Nc2ccc(Cc3cccc(Cl)c3)cn2)ccc1=O` [Example 48, N-(5-(3-chlorobenzyl)pyridin-2-yl)-1-methyl-6-oxo-1,6-dihydropyridine-3-carboxamide] gave an IC50 (human SCD5 [4]; [5]) of 0.01 µM and an IC50 (human SCD1 [3]) of 0.15 µM.
For `COc1ccc(Cc2ccc(NC(=O)c3ccc(=O)n(C)c3)nc2)cc1F` [Example 49, N-(5-(3-fluoro-4-methoxybenzyl)pyridin-2-yl)-1-methyl-6-oxo-1,6-dihydropyridine-3-carboxamide], the IC50 (human SCD5 [4]; SCD5 IC50) was 21.2 µM and the IC50 (human SCD1 [3]) was over 45 µM.
